Results as given in ChEMBL document CHEMBL6092220 (J Med Chem, 2024).
Activity calls are given as the source filed them. No cut-off for these calls is given here.

Columns and labels:
[1] = Half life in ICR mouse at 5 mg/kg, iv; type: ADME, organism-based; details: in vivo
[2] = AUC (0 to t) in Beagle dog at 1 mg/kg, iv; type: ADME, organism-based, Canis lupus familiaris; details: in vivo
[3] = biological target: T1, Protein cereblon/Signal transducer and activator of transcription 3 (Mus musculus) (UniProt P42227+Q8C7D2); assay: In-vivo PROTAC activity at STAT3/CRBN in female CB17 SCID mouse assessed as reduction STAT3 level liver at 10 mg/kg, iv measured at 72 hrs by Western blot analysis; type: functional, organism-based; design: scale not given: the % may be the effect or the level left
[4] = Cmax in Sprague-Dawley rat at 5 mg/kg, iv; type: ADME, organism-based; details: in vivo
[5] = biological target: T2, Protein cereblon/Signal transducer and activator of transcription 3 (Homo sapiens, UniProt P40763+Q96SW2); assay: PROTAC activity at his-SUMO-tagged STAT3 (127 to 688 residues)/CRBN in human PBMC cells assessed as reduction in STAT3 level incubated for 20 hrs by Western blot analysis; type: cell-based
[6] = Stability in dog Hepatocyte assessed as half life; type: ADME, cell-based, Canis lupus familiaris; details: hepatocytes
[7] = biological target: T2, Protein cereblon/Signal transducer and activator of transcription 3; assay: (§1) PROTAC activity at STAT3/CRBN in human Pfeiffer cells transfected with STAT3 K658R mutant assessed as reduction in STAT3 level incubated for 20 hrs by Western blot analysis; type: cell-based; details: dose <= 40.0 µM
[8] = biological target: Protein cereblon/Signal transducer and activator of transcription 3 (Homo sapiens, UniProt P40763+Q96SW2, K658R); assay: as §1; type: cell-based
[9] = biological target: T1, Protein cereblon/Signal transducer and activator of transcription 3 (Mus musculus); assay: In-vivo PROTAC activity at STAT3/CRBN in female CB17 SCID mouse assessed as reduction STAT3 level spleen at 10 mg/kg, iv measured at 72 hrs by Western blot analysis; type: functional, organism-based; design: scale not given: the % may be the effect or the level left
[10] = biological target: hERG (KCNH2) (Homo sapiens, UniProt Q12809); assay: Inhibition of hERG at 3 uM relative to control; type: toxicity
[11] = biological target: T2, Protein cereblon/Signal transducer and activator of transcription 3; assay: PROTAC activity at his-SUMO-tagged STAT3 (127 to 688 residues)/CRBN in human PBMC cells assessed as reduction in STAT3 level upto 40 uM incubated for 20 hrs by Western blot analysis relative to control; type: cell-based; design: scale not given: the % may be the effect or the level left
[12] = Antiproliferative activity against human SUPM2 cells assessed as cell growth inhibition incubated for 4 days by celltiter-glo assay; type: functional, cell-based; details: SUP-M2, 96 h
[13] = Drug concentration in female CB17 SCID mouse liver at 5 mg/kg, iv measured at 72 hrs by LC-MS/MS analysis; type: ADME, organism-based; details: read-out: Ct
[14] = biological target: T1, Protein cereblon/Signal transducer and activator of transcription 3 (Mus musculus); assay: In-vivo PROTAC activity at STAT3/CRBN in female CB17 SCID mouse assessed as reduction in STAT3 level liver at 5 mg/kg, iv measured at 72 hrs by immunobloting analysis; type: functional, organism-based; design: scale not given: the % may be the effect or the level left
[15] = biological target: T1, Protein cereblon/Signal transducer and activator of transcription 3 (Mus musculus); assay: In-vivo PROTAC activity at STAT3/CRBN in female CB17 SCID mouse assessed as reduction in STAT3 level tumor at 5 mg/kg, iv measured at 72 hrs by immunobloting analysis; type: functional, organism-based; design: scale not given: the % may be the effect or the level left
[16] = Drug concentration in female CB17 SCID mouse plasma at 5 mg/kg, iv measured at 6 hrs by LC-MS/MS analysis; type: ADME, organism-based
[17] = Cmax in Beagle dog at 1 mg/kg, iv; type: ADME, organism-based, Canis lupus familiaris; details: in vivo
[18] = biological target: T2, Protein cereblon/Signal transducer and activator of transcription 3; assay: PROTAC activity at his-SUMO-tagged STAT3 (127 to 688 residues)/CRBN in human MOLM16 cells assessed as reduction in STAT3 level at 10 uM incubated for 4 hrs by multiplexed quantitative proteomics analysis relative to control; type: cell-based; design: scale not given: the % may be the effect or the level left
[19] = Cmax in ICR mouse at 5 mg/kg, iv; type: ADME, organism-based; details: in vivo
[20] = Plasma protein binding in dog assessed as unbound fraction at 10 uM; type: ADME, cell-free, Canis lupus familiaris
[21] = biological target: T1, Protein cereblon/Signal transducer and activator of transcription 3 (Mus musculus); assay: In-vivo PROTAC activity at STAT3/CRBN in female CB17 SCID mouse assessed as STAT3 depletion spleen at 5 mg/kg, iv measured upto 72 hrs by immunobloting analysis; type: functional, organism-based
[22] = biological target: Signal transducer and activator of transcription 6 (Homo sapiens, UniProt P42226); assay: Binding affinity to STAT6 (unknown origin) by FP assay
[23] = Drug concentration in female CB17 SCID mouse spleen at 5 mg/kg, iv measured at 6 hrs by LC-MS/MS analysis; type: ADME, organism-based; details: read-out: Ct
[24] = biological target: Cytochrome P450 3A4 (Homo sapiens, UniProt P08684); assay: Inhibition of CYP3A4 (unknown origin) using midazolam as substrate; type: ADME

`COC(=O)N1CC[C@H]2CC[C@@H](C(=O)N[C@@H](CCC(N)=O)C(=O)N[C@@H](Cc3ccc(F)c(F)c3)C(=O)N3CCC(CCC#Cc4cccc5c4CN(C4CCC(=O)NC4=O)C5=O)CC3)N2C(=O)[C@@H](NC(=O)c2cc3cc(C(F)(F)P(=O)(O)O)ccc3s2)C1` (stereo not given in full) gave a half-life [1] of 22.1 h, an AUC(0-t) [2] of 10700 ng·h/mL and an Activity [3] of over 90%. For the same molecule, the Cmax [4] was 82.6 µg/mL, the DC50 [5] was 0.1 nM and the Activity ([5]; dose 0.1-4000 nM) was “Dose-dependent-effect”. For the same molecule, the t1/2 [6] was over 2 h, the Activity [7] was “Dose-dependent-effect” and the DC50 [8] was 2.5 nM. It also gave an Activity [9] of over 90%, an inhibition at 3 µM [10] of 1.3% and an Activity [11] of over 95%. The IC50 [12] was 390 nM, the concentration at 72 h [13] was 598 ng/g and the Activity [14] was over 90%. The Activity [15] was over 90%, the concentration at 6 h [16] was 30.3 µg/mL and the Cmax [17] was 8.86 µg/mL. It also gave an Activity [18] of 85%, a Cmax [19] of 130 µg/mL and a Fu [20] of 1.7%. The Activity [21] was “Active”, the IC50 [22] was over 10000 nM and the concentration at 6 h [23] was 1950 ng/g. The IC50 [24] was over 10000 nM.
